Values of other authors, collected in patent US20080139483A1, “DRUG COMBINATION FOR HYPERTENSIVE DISORDERS” (priority 2006, published 2008).

Legend:
[1] = test system: patients with PAH; conditions: does not appear to be dose related
[2] = test system: p450

COC(c1ccccc1)(c1ccccc1)[C@H](Oc1nc(C)cc(C)n1)C(=O)O [ambrisentan]
potential liver toxicity [1]: low incidence and severity of potential liver toxicity | drug interactions (p450 induction or inhibition) [2]: no p450 induction or inhibition
